According to patent US20250154112A1, “A PREPARATION OF QUINAZOLINEDIONES AND USE THEREOF” (COUNCIL OF SCIENTIFIC AND INDUSTRIAL RESEARCH AN INDIAN …, priority 2021, published 2025):

How the values were obtained:
[1] = tested on: HepG2 cells; test: Confocal microscopy of lipid droplets in oleate induced HepG2 cells; format: cell-based; conditions: 250 μM oleate induction, 100 nM and 500 nM, 24 hours
Method: To select the compounds capable of inhibiting the ubiquitination of ATGL by COP1 by targeting the VP motif, confocal microscopy was performed with the provided molecules. If the compound was effective in inhibiting the interaction, there would have been a reduction in the number of fat droplets in the cells after treatment. […] With this rationale in mind, HepG2 cells were induced to accumulate lipid droplets after treatment with 250 μM of oleate and 10 μM of the specific compounds were added. The potential of the compounds to bring about a reduction in the number of fat droplets was then checked by comparison with oleate induced cells by counting number of droplets of approximately 20 cells from each treatment and calculating the average number of lipid droplets of each cell. The selected compounds were then subjected to dose dependent treatments and the ones which could maintain its potency to reduce fat droplets at lower doses were then selected for western blot analysis. The compound which could reduce the number of fat droplets in the cells were expected to raise the levels of ATGL since they were likely to deter COP1 from ubiquitinating ATGL. This increase was visible only in the protein level and gene expression was likely to remain unchanged since ubiquitination is a […] modification. […]

[2] = tested on: ATGL; test: Western blot of ATGL level in primary mouse hepatocytes; format: cell-based; conditions: 10 nM to 500 nM, 24 hours, with respect to control
Method: To further strengthen the efficiency of the compound 62, primary hepatocytes were isolated from mice and these compounds were treated in a dose dependent manner for 24 hours. Primary hepatocytes and adipose tissue explants were isolated from mice and subjected to compound treatment for 24 hours at the doses of 10 nM, 20 nM, 50 nM, 100 nM and 500 nM. Post cell harvesting, western blot was carried out with the lysate to check the ATGL level. ATGL and COP1 antibodies were used. Actin served the purpose of a loading control.
Hepatocytes-2-4 months old chow-fed black male mouse (C57b1/6) was sacrificed using chloroform (SRL) and was cleaned with 70% ethanol. […] Blood was drawn from the heart in order to prevent backflow into liver while perfusion. The butterfly cannula was inserted into the PV and 20 ml of HBSS (Hank's Balanced Salt Solution; 5 mM KCl, 0.4 mM KH2PO4, 4 mM NaHCO3, 140 mM NaCl, 0.3 mM Na2HPO4, 6 mM Glucose, HEPES, 0.5 mM MgCl2.6H2O, 0.4 mM MgSO4·7H2O, 0.5 mM EDTA; not containing 1 mM CaCl2)) was allowed to pass through the liver (Perfusion) at a constant flow rate of 3 ml/min, maintained by Masterflex digital peristaltic pump (Cole-Parmer). The IVC was cut as soon as the passage of the buffer through the liver began, so that blood and perfusate from liver was drained through the IVC. The liver blanched and became pale in color upon this treatment. […]

[3] = tested on: ATGL; test: In vivo study, Western blot of ATGL in mice liver and adipose tissue; design: species or system C57BL/6 mice; conditions: 80 mg/kg orally, 9 days
Method: (§1) 6-8 weeks old healthy male C57BL/6 mice (average weight: 28 grams) were taken for the study. These were then divided into two groups comprising of three mice per group (Control, compound 62). Mice were fed with 80 mg/kg of compound 62 orally. The compound was dissolved in 10% EtOH, 40% PEG, 20% PG, 30% NaCl solution (0.9%). The control group was fed only with the solvent in which the compound was dissolved. Post 9 days of one-time feeding mice were sacrificed and a portion of the excised liver tissue and adipose was homogenized in lysis buffer containing protease inhibitor cocktail. The homogenate was centrifuged at 20,000 g for 30 minutes following which the supernatant containing the protein lysate was collected. The lysate was then diluted accordingly, and protein estimation was carried out by Bradford Assay. This was followed by Western Blotting wherein the levels of ATGL and COP1 were checked. Actin was used as the loading control.

[4] = tested on: C57BL/6 mice fed with high fat diet (HFD); test: HFD induced fatty liver disease model; format: in vivo; conditions: HFD 12 weeks, 80 mg/kg orally for the last 4 weeks
Method: A preclinical therapeutic model was developed where C57BL/6 mice were fed with 60% kcal high fat diet (HFD) for 12 weeks, and for the last 4 weeks the mice were orally fed with the compound 62 at 80 mg/kg body weight dose.

[5] = molecular target: T1, COP1 (Mus musculus, UniProt Q9R1A8); test: In vivo study, Western blot of COP1 in mice liver and adipose tissue; design: species or system C57BL/6 mice; conditions: 80 mg/kg orally, 9 days
T1 construct: from tissue; host or cells: liver and adipose tissue of C57BL/6 mice
T1 sequence (Q9R1A8 whole entry): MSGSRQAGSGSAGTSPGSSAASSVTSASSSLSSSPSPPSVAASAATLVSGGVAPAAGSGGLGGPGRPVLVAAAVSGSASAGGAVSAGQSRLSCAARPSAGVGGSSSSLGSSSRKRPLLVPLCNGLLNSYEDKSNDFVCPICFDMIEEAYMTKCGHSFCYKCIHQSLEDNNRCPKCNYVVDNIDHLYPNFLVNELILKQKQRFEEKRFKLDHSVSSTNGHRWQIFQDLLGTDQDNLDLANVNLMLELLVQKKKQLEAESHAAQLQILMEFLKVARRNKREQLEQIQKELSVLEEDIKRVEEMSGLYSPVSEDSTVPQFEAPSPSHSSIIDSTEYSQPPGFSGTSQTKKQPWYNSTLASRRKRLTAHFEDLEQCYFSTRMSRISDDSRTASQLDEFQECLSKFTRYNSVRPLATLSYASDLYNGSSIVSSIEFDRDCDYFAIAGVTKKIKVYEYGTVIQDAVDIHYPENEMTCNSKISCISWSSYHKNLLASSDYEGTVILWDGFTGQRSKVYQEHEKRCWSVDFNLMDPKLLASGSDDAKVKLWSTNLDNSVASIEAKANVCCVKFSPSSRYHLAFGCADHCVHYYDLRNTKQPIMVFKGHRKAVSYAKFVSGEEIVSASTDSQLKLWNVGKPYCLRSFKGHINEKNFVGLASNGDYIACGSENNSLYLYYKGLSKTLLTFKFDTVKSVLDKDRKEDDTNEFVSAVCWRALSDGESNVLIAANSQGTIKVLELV
Method: as §1

Question: For `COCCn1c(=O)c2cc(NC(=O)Nc3cccc(C(C)=O)c3)ccc2n(CCN2CCCCC2)c1=O` [Compound 62, 1-(3-acetylphenyl)-3-(3-(2-methoxyethyl)-2,4-dioxo-1-(2-(piperidin-1-yl)ethyl)-1,2,3,4-tetrahydroquinazolin-6-yl)urea], which “number of lipid droplets” value [1] is on record?
Answer: The value was “decrease in the number of lipid droplets”.

Question: What about the “ATGL level (Western Blot)” value [2] of the same compound?
Answer: The value was “increased ATGL level”.

Question: What about the “ATGL levels in liver and adipose lysates” value [3] of the same compound?
Answer: Its value is “effective in increasing ATGL and COP1 levels”.

Question: What about the body weight [4] of the same compound?
Answer: The body weight was “Reductions”.

Question: What about the hepatic fibrogenesis [4] of the same compound?
Answer: Its hepatic fibrogenesis is “improvement in hepatic fibrogenesis”.

Question: What about the “hepatic lipid droplets (FIG. 7A)” value [4] of the same compound?
Answer: Its value is “considerable depletion of hepatic lipid droplets”.

Question: What about the liver triglyceride content [4] of the same compound?
Answer: The liver triglyceride content was “Reductions”.

Question: And the serum cholesterol level [4]?
Answer: The serum cholesterol level was “Reductions”.

Question: And the total liver weight [4]?
Answer: Its total liver weight is “Reductions”.

Question: And the “COP1 levels in liver and adipose lysates” value [5]?
Answer: Its value is “effective in increasing ATGL and COP1 levels”.
